In US20080214542A1, “Arylpiperazine Derivatives and their Use as Selective Dopamine D3 Receptor Ligands” (BIOPROJET, priority 2004, published 2008) one finds Ki data, which are given here for ten compounds.

For the test, the target named is human dopamine D3 receptor (hD3) (Homo sapiens, UniProt P35462). Nature of the test: Binding of [3H]spiperone to membranes of CHO cells transfected with the human dopamine D3 receptor. The method, then:
Biological Results: Determination of the Affinity of the Compounds for the Human Dopamine D3 Receptor
Binding of [^3H]spiperone:
CHO cells were transfected by the gene coding for the human dopamine D3 receptor (hD3). The binding of [^3H]spiperone (0.5 to 2 nM) takes place in the presence of 5 to 10 μg of membranous proteins in a medium containing 120 mM NaCl, 5 mM KCl, and 50 mM Tris HCL pH 7.4; an incubation of 60 minutes at ambient temperature is necessary. The non-specific binding is estimated in the presence of 5 μM of haloperidol. The non-transfected cells are devoid of any binding activity.

Where [1] appears, read: binding of [3H]spiperone (0.5 to 2 nM), hD3-transfected CHO cell membranes, 60 minutes at ambient temperature, read-out: hD3 Ki.

Counter-ions that a name gives are not always drawn. Like-named read-outs stand apart in the source and are kept apart here.

Sequence of human dopamine D3 receptor (hD3) (P35462 whole entry): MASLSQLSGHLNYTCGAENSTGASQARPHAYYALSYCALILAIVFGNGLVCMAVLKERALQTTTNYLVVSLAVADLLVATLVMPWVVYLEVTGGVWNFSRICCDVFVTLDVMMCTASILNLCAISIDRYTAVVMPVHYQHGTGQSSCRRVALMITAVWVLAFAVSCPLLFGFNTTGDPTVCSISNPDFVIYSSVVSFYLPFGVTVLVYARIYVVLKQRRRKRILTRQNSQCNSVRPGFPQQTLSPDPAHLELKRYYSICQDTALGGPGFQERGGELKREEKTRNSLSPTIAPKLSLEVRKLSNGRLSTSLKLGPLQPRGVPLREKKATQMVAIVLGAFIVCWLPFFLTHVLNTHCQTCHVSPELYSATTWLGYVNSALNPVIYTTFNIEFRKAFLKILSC

`O=C(CCCCCN1CCN(c2cccc(C(F)(F)F)c2)CC1)N1Cc2cc3c(cc2C1)OCO3` [Example 10, 1-(6,7-dihydro-5H-[1,3]dioxolo[4,5-f]isoindol-6-yl)-6-[4-(3-trifluoromethylphenyl)piperazin-1-yl]hexan-1-one]: the Ki under setting [1] came to 1.17 nM. As for `O=C(CCCCCN1CCN(c2cccc3c2CCCC3)CC1)N1Cc2ccccc2C1` [Example 38, 1-isoindolin-2-yl-6-[4-(5,6,7,8-tetrahydro-naphthalen-1-yl)piperazin-1-yl]hexan-1-one], under setting [1], the Ki is 0.84 nM. Still for that read-out and setting: under `COc1ccc2c(c1)CN(C(=O)CCCCCN1CCN(c3cccc(C(F)(F)F)c3)CC1)C2` [Example 1, 1-(5-methoxyisoindolin-2-yl)-6-[4-(3-trifluoromethylphenyl)piperazin-1-yl]hexan-1-one] stands 0.9 nM. As for `O=C(CCCCCN1CCN(c2cccc(F)c2)CC1)N1Cc2ccccc2C1` [reference compound], the inhibition constant (Ki) (comparative example, affinity for the dopamine D3 receptor, read-out: Ki) was 321 nM. `O=C(CCCCCN1CC=C(c2cccc(C(F)(F)F)c2)CC1)N1Cc2ccccc2C1` [Example 50, 1-isoindolin-2-yl-6-[4-(3-trifluoromethylphenyl)-3,6-dihydro-2H-pyridin-1-yl]hexan-1-one]: the inhibition constant (Ki) under setting [1] was 0.93 nM. Still for that read-out and setting: under `N#Cc1ccc2c(c1)CN(C(=O)CCCCCN1CCN(c3cccc(C(F)(F)F)c3)CC1)C2` [Example 3, 1-(5-cyanoisoindolin-2-yl)-6-[4-(3-trifluoromethylphenyl)piperazin-1-yl]-hexan-1-one hydrochloride] stands 2.6 nM; under `O=C(CCCCCN1CCC(c2cccc(C(F)(F)F)c2)CC1)N1Cc2ccccc2C1` [Example 51, 1-isoindolin-2-yl-6-[4-(3-trifluoromethyl-phenyl)-piperidin-1-yl]hexan-1-one], 19.7 nM. Same read-out and setting: the figure for `O=C(CCCCCN1CCN(c2cccc(C(F)(F)F)c2)CC1)N1Cc2ccc(OCCCN3CCCCC3)cc2C1` [Example 24, 1-[5-(3-piperidinopropoxy)isoindolin-2-yl]-6-[4-(3-trifluoromethylphenyl)piperazin-1-yl]hexan-1-one] is 1.21 nM; for `COC(=O)c1ccc2c(c1)CN(C(=O)CCCCCN1CCN(c3cccc(C(F)(F)F)c3)CC1)C2` [Example 12, 1-(5-methoxycarbonylisoindolin-2-yl)-6-[4-(3-trifluoromethylphenyl)piperazin-1-yl]hexan-1-one hydrochloride] it is 0.85 nM; for `O=C(CCCCCN1CCN(c2cccc(C(F)(F)F)c2)CC1)N1Cc2ccc(F)cc2C1` [Example 7, 1-(5-fluoroisoindolin-2-yl)-6-[4-(3-trifluoromethylphenyl)piperazin-1-yl]hexan-1-one] it is 1.05 nM.
